Experimental data: patent US9309247B2, “2-substituted imidazo[4,5-D]phenanthroline derivatives and their use in the treatment of cancer” (Aptose Biosciences Inc., priority 2013, dated 2016)

Columns and labels:
[1] = test system: WEHI 231 (mouse, B-cell lymphoma); assay: Cell growth inhibition assay, WEHI231; format: cell-based; details: five days of incubation, XTT; read-out: IC50 WEHI231 (ms)
Description: (§1) In this study, compounds 1-8 were screened in vitro against a panel of four mouse lymphoma cell lines and two human lymphoma cell line for cell growth inhibition activity. Following treatment, half maximal inhibitory concentrations (IC50) were determined with the objective of selecting the most efficacious compounds for evaluation of in vitro absorption, distribution, metabolism, and excretion (ADME) screening.
(§2) Similarly, human Burkitt's lymphoma Ramos cells (ATCC CRL-1596) were grown in suspension in Roswell Park Memorial Institute (RPMI) 1640 medium supplemented with 10% fetal bovine serum (FBS), 10 mM HEPES KOH pH 7.4, and 2 mM sodium pyruvate. Mouse P388D1 (ATCC CCL-46) and WR19L (ATCC TIB-52) cells were grown in suspension in Dulbecco's Modified Eagle Medium (DMEM) with 10% fetal bovine serum (FBS), 10 mM HEPES, and 2 mM sodium pyruvate. Mouse WEHI231 (ATCC CRL-1702) and EL4 (ATCC TIB-39) cells were grown in suspension in DMEM with 10% fetal bovine serum (FBS), 10 mM HEPES KOH pH 7.4, 2 mM sodium pyruvate, and 0.05 mM β-mercaptoethanol. All cells were maintained at 37° C. in an atmosphere of 5% CO2 in air. Logarithmically growing cells were routinely sub-cultured twice weekly. Briefly, cells were collected by centrifugation, resuspended in pre-warmed media, and diluted 1:10 into a 75 cm^2 flask.
(§3) Cells were subcultured and 4×10^3 cells (in 50 μL) were transferred to each well in a Falcon 96-well tissue culture plate. Exemplary compounds were dissolved in pure dimethyl sulphoxide (DMSO) at a concentration of 10 mM. From this 10 mM stock solution, 12 successive serial dilutions were made in DMSO (2.5 fold dilutions), ranging from 0.52 μM to 10 mM. Using these stock dilutions, 5 μL of each were added to 500 μL of media, and 50 μL of this was added to the cells. The final concentrations being tested ranged from 0.0026 μM to 50 μM. Each concentration was tested in triplicate, and DMSO and untreated cells were also included as controls. After five days of incubation with the compounds, cell viability was determined using the XTT cell proliferation kit (Roche, Cat. No. 11 465 015 001). Following the XTT protocol, 4.5-24 hours after addition of the reagent, the plates were read in a μQuant 96-well plate spectrophotometer (Biotek Instruments Inc.) and the results analyzed to determine the IC50.

[2] = test system: human prostate cancer cell DU14; assay: XTT cell proliferation assay, DU14; format: cell-based; details: 5 days incubation, read-out: Antiproliferative activity, Pros. DU14
Description: (§4) Exemplary compounds 1-8 were tested for anti-cancer activity in vitro using human renal cancer cells (ACHN and CAK-1), human pancreatic cells (BXPC3 and SU-86-86), human prostate cancer cell (DU14), human colon carcinoma cells (HT-29 and KM-12), leukemia cells (HL60), brain cancer/tumour cells (SK-A-AS, U87-MG), and human non-small cell lung cancer cells (H460). Compounds 1-8 are the specific embodiments of Formula (I) and Formula (IV) as described above in this application.
(§5) The cells were maintained as a monolayer in a growth medium; McCoy's 5A modified medium (Sigma, St. Louis, Mo.), supplemented with 2 mM L-glutamine (Gibco, Grand Island, N.Y.), 10% fetal bovine serum (FBS) (Multicell, WISENT Inc. St-Bruno, QC), antibiotic-antimycotic (Multicell), at 37° C. in a 5% CO2-humidified incubator. Cells were transferred onto 150 mm tissue culture plates and grown until sub-confluency (70-80%) prior to their use. The in vitro antiproliferative activity of compounds was evaluated by incubating the cells with varying concentrations of exemplary compounds as shown in Table 1 for 5 days. The efficacy of these compounds in this cell proliferation assay was measured based in the ability of live cells to reduce the tetrazolium salt XTT to orange colored compounds of formazan (XTT cell proliferation kit IT, Roche Applied Science, Montreal, QC).

EL4 (mouse, lymphoma) = assay: Cell growth inhibition assay, EL4; format: cell-based; details: five days of incubation, XTT; read-out: IC50 EL4 (ms)
Description: as §1, §2, §3

[3] = test system: human colon carcinoma cells HT-29; assay: XTT cell proliferation assay, HT-29; format: cell-based; details: 5 days incubation, read-out: Antiproliferative activity, Colon HT-29
Description: as §4, §5

[4] = test system: human renal cancer cells ACHN; assay: XTT cell proliferation assay, ACHN; format: cell-based; details: 5 days incubation, read-out: Antiproliferative activity, Kidney ACHN
Description: as §4, §5

[5] = test system: non-small cell lung cancer cells H226; assay: XTT cell proliferation assay, H226; format: cell-based, human; details: 5 days incubation, read-out: Antiproliferative activity, NSCLC H226
Description: [The procedure below names another cell line; the source lists this cell line under the same test.] as §4, §5

[6] = test system: brain cancer/tumour cells U87-MG; assay: XTT cell proliferation assay, U87-MG; format: cell-based, human; details: 5 days incubation, read-out: Antiproliferative activity, Brain U87-MG
Description: as §4, §5

[7] = test system: human colon carcinoma cells KM12; assay: XTT cell proliferation assay, KM12; format: cell-based; details: 5 days incubation, read-out: Antiproliferative activity, Colon KM12
Description: as §4, §5

[8] = test system: Human Burkitt's lymphoma Raji cells; assay: Cell growth inhibition assay, Raji; format: cell-based; details: five days of incubation, XTT; read-out: IC50 Raji (hs)
Description: as §1
Human Burkitt's lymphoma Raji cells (ATCC CCL-86) were grown in suspension in Roswell Park Memorial Institute (RPMI) 1640 medium supplemented with 10% fetal bovine serum (FBS), 10 mM HEPES KOH pH 7.4, and 2 mM sodium pyruvate at 37° C. in an atmosphere of 5% CO2 in air. Logarithmically growing cells were routinely sub-cultured twice weekly. Briefly, cells were collected by centrifugation, resuspended in pre-warmed media, and diluted 1:10 into a 75 cm^2 flask.
as §3

[9] = test system: human pancreatic cells BXPC3; assay: XTT cell proliferation assay, BXPC3; format: cell-based; details: 5 days incubation, read-out: Antiproliferative activity, Pancreas BXPC3
Description: as §4, §5

WR19L (mouse, lymphoma) = assay: Cell growth inhibition assay, WR19L; format: cell-based; details: five days of incubation, XTT; read-out: IC50 WR19L (ms)
Description: as §1, §2, §3

[10] = test system: panel of human and mouse lymphoma cell lines; assay: Cell growth inhibition, whole lymphoma panel (mean IC50, mean rank); format: cell-based; details: mean over six lymphoma cell lines
Description: as §1, §3
In vitro potency was assessed using eight exemplary compounds against a panel of human and mouse lymphoma cell lines (Table 4). […] To compare the efficacy of the compounds in cell growth inhibition across the entire panel of cell lines screened, the eight compounds were ranked according to efficacy against each cell line with a numerical value of one indicating most efficacious (lowest IC50 value) and eight being the least efficacious (highest IC50 value).

leukemia cells HL60 = assay: XTT cell proliferation assay, HL60; format: cell-based, human; details: 5 days incubation, read-out: Antiproliferative activity, Leuk. HL60
Description: as §4, §5

P388D1 (mouse, lymphoma) = assay: Cell growth inhibition assay, P388D1; format: cell-based; details: five days of incubation, XTT; read-out: IC50 P388D1 (ms)
Description: as §1, §2, §3

[11] = test system: human Burkitt's lymphoma Ramos cells; assay: Cell growth inhibition assay, Ramos; format: cell-based; details: five days of incubation, XTT; read-out: IC50 Ramos (hs)
Description: as §1, §2, §3

[12] = test system: non-small cell lung cancer cells HOP-92; assay: XTT cell proliferation assay, HOP-92; format: cell-based, human; details: 5 days incubation, read-out: Antiproliferative activity, NSCLC HOP-92
Description: [The procedure below names another cell line; the source lists this cell line under the same test.] as §4, §5

[13] = NCI screen; cited from earlier work
[14] = test system: human pancreatic cells SU-86-86; assay: XTT cell proliferation assay, SU-86-86; format: cell-based; details: 5 days incubation, read-out: Antiproliferative activity, Pancreas SU-86-86
Description: as §4, §5

[15] = test system: human non-small cell lung cancer cells H460; assay: XTT cell proliferation assay, H460; format: cell-based; details: 5 days incubation, read-out: Antiproliferative activity, NSCLC H460
Description: as §4, §5

[16] = test system: non-small cell lung cancer cells HOP-62; assay: XTT cell proliferation assay, HOP-62; format: cell-based, human; details: 5 days incubation, read-out: Antiproliferative activity, NSCLC HOP-62
Description: [The procedure below names another cell line; the source lists this cell line under the same test.] as §4, §5

[17] = test system: human renal cancer cells CAKI-1; assay: XTT cell proliferation assay, CAKI-1; format: cell-based; details: 5 days incubation, read-out: Antiproliferative activity, Kidney CAKI-1
Description: as §4, §5

[18] = test system: non-small cell lung cancer cells EKVX; assay: XTT cell proliferation assay, EKVX; format: cell-based, human; details: Homo sapiens, EKVX, 120 h, 5 days incubation, read-out: Antiproliferative activity, NSCLC EKVX
Description: [The procedure below names another cell line; the source lists this cell line under the same test.] as §4, §5

[19] = test system: brain cancer/tumour cells SK-N-AS; assay: XTT cell proliferation assay, SK-N-AS; format: cell-based, human; details: 5 days incubation, read-out: Antiproliferative activity, Brain SK-N-AS
Description: as §4, §5

Row | SMILES | IC50 [1] [nM] | IC50 [2] [nM] | IC50 (EL4 (mouse, lymphoma)) [nM] | IC50 [3] [nM] | IC50 [4] [nM] | IC50 [5] [nM] | IC50 [6] [nM] | IC50 [7] [nM] | IC50 [8] [nM] | IC50 [9] [nM] | IC50 (WR19L (mouse, lymphoma)) [nM] | IC50 [10] [nM] | IC50 (leukemia cells HL60) [nM] | IC50 (P388D1 (mouse, lymphoma)) [nM] | IC50 [11] [nM] | IC50 [12] [nM] | activity in the In Vivo Anticancer Drug Screen [13] | further results
1 | FC1(F)Oc2ccc(-c3nc4c5cccnc5c5ncccc5c4[nH]3)cc2O1 [Compound 3] | 4.2 | 170 | 451 | 220 | 170 | 390 | 154 | 230 | 197 | 180 | 59 | 205 | 150 | 377 | 139 | 170 |  | 
2 | FC1(F)Oc2ccc(-c3nc4c5cccnc5c5ncccc5c4[nH]3)cc2O1 [Compound 8] | 3 | 150 | 199 | 285 | 203 | 710 | 190 | 583 | 25 | 210 | 5.1 | 69 | 110 | 146 | 34 | 160 |  | 
3 | c1ccc2c(-c3nc4ccccc4[nH]3)cccc2c1 [NCI #144033] |  |  |  |  |  |  |  |  |  |  |  |  |  |  |  |  | None of these three compounds showed any activity | 
4 | FC1(F)Oc2ccc(-c3nc4c5cccnc5c5ncccc5c4[nH]3)cc2O1 [Compound 4] | 6.4 | 150 | 486 | 300 | 127 | 390 | 180 | 180 | 54 | 170 | 5.8 | 142 | 170 | 243 | 58 | 170 |  | IC50 [14]: 26 nM; IC50 [15]: 160 nM; IC50 [16]: 170 nM; IC50 [17]: 170 nM; IC50 [18]: 160 nM; IC50 [19]: 190 nM
5 | CN(C)c1ccc(-c2nc3c4ccccc4c4ccccc4c3[nH]2)cc1 [NCI #322334] |  |  |  |  |  |  |  |  |  |  |  |  |  |  |  |  | None of these three compounds showed any activity | 
